According to paper PMC9574862, “Designing Soluble PROTACs: Strategies and Preliminary Guidelines” (Journal of Medicinal Chemistry, 2022):

How the values were obtained:
[1] = pH 7.0, extrapolated to 0% acetonitrile
Procedure: The logarithm of the capacity factor of an IAM column system, extrapolated at 100% water (log kw^IAM), is also an experimental descriptor of the lipophilicity of drugs since it mimics the interaction between the polar heads of the membrane phospholipids and the drug in solution.[29]
The mobile phase consisted of a solution of 20 mM ammonium acetate (pH 7.0) in a mixture with acetonitrile at various percentages (from 10 to 50%, v/v). Samples were dissolved in buffer/ACN and injected into the previously mentioned IAM column at a flow rate of 1.0 mL/min at 30 °C. Chromatographic retention data were determined in duplicate for the different mobile phase conditions. Data were recorded as log k′ (capacity factor k′ = [tR – t0]/t0), where tR and t0 are the retention times of the sample and a nonretained molecule (citric acid), respectively. Thus, log kw^IAM values were calculated by an extrapolation method of the experimental equation, at 0% acetonitrile. Moreover, five gold standard compounds (caffeine, carbamazepine, ketoprofen, theobromine, and toluene) were checked daily.

[2] = log kw^IAM – clog kw^IAM
Procedure: Since polarity is a molecular property often related to solubility,[13] experimental descriptors of polarity (Δ log kw^IAM and EPSA) were also determined. Introduced by Grumetto in 2012,[30] Δ log kw^IAM is the difference between the experimental log kw^IAM and the value expected for neutral analytes with a zero value of polar surface area (which depends on the experimental measurement of the n-octanol partition coefficient[31]). EPSA quantifies the polarity of a molecule using a supercritical fluid chromatographic (SFC) method.[32]

[3] = Thermodynamic solubility, shake-flask, 10 mM PBS (0.15 M KCl) pH 7, 25 °C, 1 h, HPLC-UV; settings: pH 7, 25 °C; for solubility at 1 h: 25 °C, pH 7, aqueous buffer, thermodynamic from solid
Procedure: Its measurement only requires an initial DMSO stock solution which is precipitated by the addition of an aqueous phase.[23],[24] Here, we measured thermodynamic solubility, often determined in late lead optimization, which efficiently considers the solubility value when the equilibrium with the stable phase or polymorph has been reached.
Solubility was determined in 10 mM PBS (0.15 M KCl) at pH 7, 25 °C. A 1–2 mg sample of each molecule was added to the same quantity (1–2 mL) of the mentioned buffer to obtain 1 mg/mL solutions in the vial. Samples were then submitted to 25 °C and magnetic stirring (500 rpm) for 1 h. After this period, solutions or suspensions were filtered through the 0.45 μm membrane pore and diluted with buffer, 10 mM PBS (0.15 M KCl). The amount of dissolved compound in each sample was then quantified, in duplicate, via HPLC using ultraviolet (UV) spectrometric detection.
Variable volumes of pure DMSO (0–100 μL) were added separately to small and defined (1 mg) quantities of each compound to obtain clear solutions. […] Afterward, 5% DMSO 10 mM PBS (0.15 M KCl) was added until the suspensions or precipitations were redissolved, to render clear solutions. As soon as solutions were obtained, they were used as mother solutions for the performance of 5–10 point calibration curves with serial buffer dilutions (1:1; v/v) 5% DMSO 10 mM PBS (0.15 M KCl). Calibration points were then measured via HPLC-UV.
The mobile phase consisted of a solution of acetonitrile (ACN) and 20 mM ammonium acetate buffer (AAB), pH 7, freshly prepared. A 10 μL volume of each sample (volume of injection) was injected at an isocratic 1 mL/min flow rate analyzed at 30 °C (oven temperature). Solubility determination of each compound required a specific HPLC method. Settings are collected in Table S11 (PROTACs) and Table S10 (building blocks).
Injections were performed in duplicate for each molecule’s calibration points. The retention time and area under the curve (AUC in absorbance units) were collected, and the average was calculated. The AUC average (y-axis) was plotted versus theoretical concentration (mg/mL; x-axis) to obtain a calibration curve for each molecule. Correlation equations and coefficients (R^2) were efficiently calculated for each compound (Table S12 for PROTACs and Table S10 for building blocks). Samples were then injected in duplicate, and the AUC averages and standard deviations were calculated. Finally, the absorbance averages were interpolated into the corresponding equations, extracting the final solubility values with their standard deviation, after dilution factor corrections.

physchem = settings: for chromatographic logD: pH 7
Procedure: PROTAC experimental solubility was first correlated with lipophilicity descriptors (log P is implemented in the general solubility equation (GSE)[27]). As described by some of us,[16] BRlogD represents a validated,[28] very useful and straightforward chromatographic descriptor for the logarithm of the distribution coefficient in the n-octanol/water system (log D) of neutral and cationic bRo5 molecules.
The mobile phase consisted of an isocratic solution of 20 mM ammonium acetate (pH 7.0) and acetonitrile, 40–60%, respectively (v/v).[16] Samples were dissolved in buffer/ACN and injected into the XBridge column at a flow rate of 1.0 mL/min at 30 °C. Retention times were determined in duplicate, and the dead time, t0, was recorded as the baseline disturbance.

[4] = pKa determination by potentiometry (SiriusT3); settings: for Ionization state at pH 7: experimental
Procedure: Solids were weighed with a Sartorius Entris224-1S Analytical (www.sartorius.com). pKa values were measured with a SiriusT3 instrument (Sirius Analytical Instruments) equipped with a reference pH electrode (Ag/AgCl double junction) and a turbidity detector. Ultrasonic cleaner, obtained from VWR Chemicals (www.vwr.com), and an IKA VORTEX 3 (www.ika.com) were used to avoid precipitation in the calibration points. Stirring and heating were provided by magnetic and heating plates C-MAG MS 7 and IKA ETS-D5, respectively (www.ika.com). Moreover, pH was measured with a Eutech pH Meter 2700 (www.fishersci.com). Analyses were carried out by high-performance liquid chromatography (HPLC; DIONEX Ultimate 3000, Thermo Scientific Inc.) provided with an RS diode array and Chromeleon 7.2.10 software (www.thermofisher.com). HPLC columns IAM.PC.DD2 (300 Å, 10 μm, 10 cm × 4.6 mm) from REGIS and XBridge Shield RP18 (130 Å, 5 μm, 5 cm × 4.6 mm) from Waters (www.waters.com) were used. Ergonomic high-performance single-channel variable volume pipettors, HPLC 1.5 mL vials, 0.1 mL microinsert, and PP 9 mm screw caps were obtained from VWR Signature. EPSA analyses were performed by supercritical fluid chromatography (SFC; JASCO SFC-4000, Jasco Europe srl), provided with a diode array and ChromNAV 2.04.00 software (www.jascoweb.com). The SFC column Chirex 3014 (S)-VAL and (R)-NEA (100 Å, 5 μm, 25 cm × 4.6 mm) from Phenomenex was used.
Acidic dissociation constants of pomalidomide, S,R,S-AHPC HCl, and S,S,S-AHPC 2HCl were measured potentiometrically. Titrations were performed to 0.15 M KCl sample solutions under a nitrogen atmosphere at 25 ± 1 °C. Moreover, standardized 0.5 M KOH and 0.5 M HCl were used as titration reagents (solutions were prepared from Titrisol (Merck) concentrated solutions).[45]

[5] = Exp.LogS, PROTAC pairs and building blocks

SMILES	Log kw IAM [1]	ΔLog kw IAM [2]	solubility at 1 h [3, 5] [µM]	chromatographic logD (physchem)	Experimental pKa (2-12) ([4]; 0.15 M KCl, 25 °C, (b) = basic)	Ionization state at pH 7 [4]	Ionization state at pH 7 ([4]; listed as pomalidomide)	BRlogD (physchem; pH 7.0)	solubility at 1 h ([3]; Solubility average, thermodynamic, shake-flask, 1 h) [µM]	solubility at 1 h ([3]; Solubility log S, Table S-3) [µM]	solubility at 1 h ([3]; Solubility, Table S-3) [µg/mL]	Classification (GSK guidelines) ([3]; solubility class)
Cc1ncsc1-c1ccc(CNC(=O)[C@@H]2C[C@H](O)CN2C(=O)[C@@H](N)C(C)(C)C)cc1.Cl.Cl [S,S,S-AHPC 2HCl]	1.86	2.05	2040	0.91								
Cc1ncsc1-c1ccc(CNC(=O)[C@@H]2C[C@@H](O)CN2C(=O)[C@@H](N)C(C)(C)C)cc1.Cl [S,R,S-AHPC HCl]	1.83	2.34	2090	0.56								
COc1cc(C(=O)NC2CCN(C)CC2)ccc1Nc1ncc(C(F)(F)F)c(Oc2cccc3c2C(=O)CC3)n1 [BI-4464]	1.84	1.23	64.6	1.79								
Nc1cccc2c1C(=O)N(C1CCC(=O)NC1=O)C2=O (centres unmarked) [Pomalidomide]	0.91	0.64	36.3		Not ionizable	Neutral	not ionized	1.41				
CC(=O)N1c2ccc(-c3ccc(C(=O)O)cc3)cc2[C@H](Nc2ccc(Cl)cc2)C[C@@H]1C [I-BET726]	1.88	2.64	60.3	0.3								
Cc1sc2c(c1C)C(c1ccc(Cl)cc1)=N[C@@H](CC(=O)O)c1nnc(C)n1-2 [JQ1 carboxylic acid]	0.80	1.76	> 2510	0.08								
COc1cc(-c2cn(C)c(=O)c3cc(C(=N)NC4CCS(=O)(=O)CC4)sc23)ccc1OCC(=O)NCCCCNC(=O)COc1cccc2c1C(=O)N(C1CCC(=O)NC1=O)C2=O (centres unmarked) [BRD9 degrader-1]		high							661	661	600	High (> 200 μM) (High (> 200 μM))
